Experimental data published in the Kinase Knowledgebase extract (Sharma et al. 2016).

Molecular target: PIK3CD (Human) (UniProt O00329)
Test: Assessment of PIK3CD Kinase Activity

PIK3CD (Human), sequence (O00329 whole entry, looked up): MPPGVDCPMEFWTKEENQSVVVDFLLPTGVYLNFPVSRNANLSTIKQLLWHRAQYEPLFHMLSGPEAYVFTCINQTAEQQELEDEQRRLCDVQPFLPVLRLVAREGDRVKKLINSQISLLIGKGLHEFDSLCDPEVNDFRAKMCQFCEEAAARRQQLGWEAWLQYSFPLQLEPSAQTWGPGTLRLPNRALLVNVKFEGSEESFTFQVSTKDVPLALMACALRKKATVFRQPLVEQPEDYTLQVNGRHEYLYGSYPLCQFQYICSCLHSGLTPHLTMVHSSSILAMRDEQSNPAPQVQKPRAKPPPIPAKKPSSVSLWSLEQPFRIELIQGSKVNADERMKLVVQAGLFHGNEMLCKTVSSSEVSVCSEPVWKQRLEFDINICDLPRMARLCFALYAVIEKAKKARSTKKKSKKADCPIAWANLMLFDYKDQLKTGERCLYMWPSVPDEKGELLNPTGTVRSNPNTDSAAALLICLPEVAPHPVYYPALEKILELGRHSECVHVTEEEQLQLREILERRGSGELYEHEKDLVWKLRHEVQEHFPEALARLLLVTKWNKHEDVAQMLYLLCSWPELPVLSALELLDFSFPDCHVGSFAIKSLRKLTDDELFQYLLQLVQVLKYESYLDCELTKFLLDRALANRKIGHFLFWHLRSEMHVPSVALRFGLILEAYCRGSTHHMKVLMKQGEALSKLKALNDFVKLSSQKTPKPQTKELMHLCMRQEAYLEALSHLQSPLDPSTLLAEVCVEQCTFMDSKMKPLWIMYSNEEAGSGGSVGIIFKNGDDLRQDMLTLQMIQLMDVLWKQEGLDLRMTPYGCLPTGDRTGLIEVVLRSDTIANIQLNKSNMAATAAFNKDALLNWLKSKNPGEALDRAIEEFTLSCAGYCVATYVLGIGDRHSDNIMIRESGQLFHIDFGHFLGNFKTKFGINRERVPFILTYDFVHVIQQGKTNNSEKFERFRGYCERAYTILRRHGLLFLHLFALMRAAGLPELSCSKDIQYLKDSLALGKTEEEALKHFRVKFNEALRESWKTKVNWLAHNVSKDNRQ

IC50, < 0.5 µM:
c1cc(-c2nc(N3CCOCC3)c3cc(CN4CC5CCC(C4)N5)ccc3n2)c2cc[nH]c2c1
C[C@@H]1CN(Cc2ccc3nc(-c4cccc5[nH]ccc45)nc(N4CCOCC4)c3c2)C[C@H](C)N1
OCCN1CCN(Cc2ccc3nc(-c4cccc5[nH]ccc45)nc(N4CCOCC4)c3c2)CC1
Fc1ccc2[nH]ccc2c1-c1nc(N2CCOCC2)c2cc(CN3C[C@@H]4C[C@H]3CN4)ccc2n1
CN1CCC(N(C)Cc2ccc3nc(-c4cccc5[nH]ccc45)nc(N4CCOCC4)c3c2)CC1
c1cc(-c2nc(N3CCOCC3)c3cc(CN4CC5CNCC5C4)ccc3n2)c2cc[nH]c2c1 (configuration not stated)
CN1CCN(Cc2ccc3nc(-c4cccc5[nH]ccc45)nc(N4CCOCC4)c3c2)CC1
Fc1cc(-c2nc(N3CCOCC3)c3cc(CN4CCC(N5CCOCC5)CC4)ccc3n2)c2cc[nH]c2c1
c1cc(-c2nc(N3CCOCC3)c3cc(CN4CCC(N5CCOCC5)CC4)ccc3n2)c2cc[nH]c2c1
c1cc(-c2nc(N3CCOCC3)c3cc(CN4CCN5CCC[C@H]5C4)ccc3n2)c2cc[nH]c2c1
c1cc(-c2nc(N3CCOCC3)c3cc(CN4CC5(CCNCC5)C4)ccc3n2)c2cc[nH]c2c1
CN1CCC(N(C)Cc2ccc3nc(-c4cc(F)cc5[nH]ccc45)nc(N4CCOCC4)c3c2)CC1
